Where two headings read alike, the source gives them in different places.
Experiments:
[1] = Preliminary pharmacokinetic study in male adult rats; assay type: in vivo; conditions: rat
Procedure: The bioavailability of the compounds were evaluated in male adult rats dosed intravenously through the tail vein (5 mg/kg) and orally (20 mg/kg). The plasma samples were collected at 2, 5, 15, 30, 60, 90, 120 and 240 minutes after intravenous dosing and 5, 15, 30, 60, 90, 120, 240 and 360 minutes after oral dosing.
Blood samples (1 ml) were collected from the rat tails into a vacutainer containing EDTA (3 ml) for both iv and po administrations. Plasma samples were prepared by centrifugation at 2000 ×g for 15 minutes at 4° C.
(§1) Plasma samples (diluted to 1 ml with water) were loaded onto the Abselut Nexus sorbent (# 1210-3100 ) and drawn through under low vacuum (approximately 5′′ Hg). One milliliter of deionized water was added to the sorbent and drawn through under vacuum. The extraction column was dried for 1 minute using a high vacuum (>10′′ Hg). One milliliter of methanol was added to the Abselut Nexus column and the eluent was collected at 1-2 ml/min. The eluent was evaporated to dryness using a Speed Vac, and the samples were reconstituted in 120 μl H2O; 100 μl was used for injection.

PBMCs = test: Cellular toxicity by [3H]-thymidine uptake; assay type: cell-based, human; conditions: Table 4, 72 hrs
Procedure: (§2) Cellular toxicity was assessed by [^3H]thymidine uptake (de Muys et al. 1999) and WST-1 staining. In the [^3H]thymidine uptake experiments, Molt-4, HT1080, DU-145, HepG2 and HSF, were plated at a concentration of 1-2×10^3 cells per well (96 well plates). PHA-stimulated PBMCs were cultured at a concentration of 4×10^4 cells per well. Following a 24 hr pre-incubation period, test compounds (10^−4 M to 10^−10 M) were added and the cells were incubated for an additional 72 hrs. [^3H]thymidine was added during the final 18 hr incubation period. The cells were then washed once with PBS, treated with trypsin if the cells were adherent, and resuspended in water (hypotonic lysing of cells). The cellular extract was applied directly to a Tomtec Harvester 96. The 50% cytotoxic concentration (CC50) was determined by comparing the radioactive counts per minute obtained from drug-tested samples to those obtained from the control (untreated) cells.

HepG-2 = test: Cellular toxicity by [3H]-thymidine uptake; assay type: cell-based; conditions: Table 4, 72 hrs
Procedure: (§3) The cellular toxicity of the compounds were assessed on various cells using [^3H]-thymidine uptake. Various cells, including Molt-4, HT1080, DU-145, HepG-2 and HSF, were plated at a concentration of 1-2×10^3 cells per well (96 well plates). After a 24 hr incubation period, 10-fold serial diluted compounds (b 10^−4 M to 10^−10 M) were added to the culture medium and the cells were further incubated for 72 hrs. [^3H]-thymidine was added during the final 18 hr incubation period. After incubation with the [^3H]-thymidine, the cells were washed once with PBS, treated with trypsin if the cells were adherent, and then resuspended in water (hypotonic lysing of cells). The cellular extract was applied directly to a Tomtec Harvester 96. Using this instrument the extracted DNA is adsorbed onto filters, washed and the incorporated [^3H]-thymidine is then counted. The 50% cytotoxic concentration (CC50) was determined by comparing the radioactive counts per minute of the samples in the presence of the compounds against the control. The cellular toxicity of the compounds was also tested by WST-1 staining through assessing proliferation of MT-2, H9, Jurkat, U937, and CBMCs. The established cell lines were cultured in RPMI medium in 96-well plates at a density of 5×10^4 cells/well while CBMCs were plated at a concentration of 0.5×10^6/well. A 10-fold serial diluted (10^−4-10^−7 M) compound was added at day zero. At day 4, the cells were passaged by changing half medium containing appropriately diluted compound. The cell activities were assessed at day 7 using the WST-1 reagent (Boehringer Mannheim) following the protocol provided by the supplier.
as §2

DU-145 = test: Cellular toxicity by [3H]-thymidine uptake; assay type: cell-based; conditions: Table 4, 72 hrs
Procedure: as §3, §2

HSF = test: Cellular toxicity by [3H]-thymidine uptake; assay type: cell-based; conditions: Table 4, 72 hrs
Procedure: as §3, §2

HT1080 = test: Cellular toxicity by [3H]-thymidine uptake; assay type: cell-based; conditions: Table 4, 72 hrs
Procedure: as §3, §2

Molt-4 = test: Cellular toxicity by [3H]-thymidine uptake; assay type: cell-based; conditions: Table 4, 72 hrs
Procedure: as §3, §2

[2] = Pharmacokinetic study in male and female rats (single dose iv or po); assay type: in vivo, rat; conditions: parameters of DAPD & DXG after administration of DAPD
Procedure: Compound A(−), DAPD, and DXG were administrated as a single dose, either intravenously through the jugular vein at 10 mg/kg or orally at 20, 125, 500, 1000 or 2000 mg/kg. All rats were fasted for 12 hours prior to po dosing treatment. The vehicle used for both iv and po administrations was 0.1% carboxymethylcellulose and 0.1% Tween 80 in distilled water, acidified to pH 3.15 with 1N HCl. Blood samples were taken from rats at the times shown in the schedule below for all oral dosing. From a total of 10 rats for each administration, seven time points were taken for the intravenous through the jugular vein dosing (2, 5, 15, 30, 60, 120 and 240 min) and for the oral dosing (5-360 min) at 20 mg/kg, whereas two additional time points at 480 and 1440 min were taken for the oral doses of 125-2000 mg/kg. As a result, each time point was in quadruplicate, except for the 1440 minute time point when blood samples were taken through the jugular vein from all the rats prior to being euthanized.
Blood samples (1 ml) were collected from the rat tails into a vacutainer containing EDTA (3 ml) for both iv and po administrations. Plasma samples were prepared by centrifugation at 2000×g for 15 minutes at 4° C.
as §1, with “(#1210-3100)” for “(# 1210-3100 )”

CBMCs = test: Cellular toxicity by WST-1 staining; assay type: cell-based; conditions: Table 4, day 7, read-out: CC50 (μM) WST-1 CBMC
Procedure: as §3
(§4) In the WST-1 staining experiments, cell lines were cultured in RPMI medium in 96-well plates at a density of 5×10^4 cells/well. CBMCs were plated at a concentration of 0.5×10^6/well. Compounds (10^−4-10^−7 M) were added at day zero. Cell viability was assessed on day 7 using the WST-1 reagent (Boehringer Mannheim) following the protocol provided by the supplier.

HIV-1IIIB = test: Anti-HIV-1 antiviral assay with HIV-1IIIB in various cell types (RT activity); assay type: cell-based; conditions: MT-2 cells, determined by RT activity, read-out: EC50 (μM) ± S.D. in MT-2 cells
Procedure: ANTIVIRAL ASSAYS. The anti-HIV-1 activity of the compound A (−) were assessed by employing HIV-1IIIB in a variety of cell types as previously described (Gu et al., 1992, 1994, 1999; Rando et al., 1995; Salomon et al., 1994). Briefly, cells were incubated with virus at a multiplicity of infection (MOI) of 0.005 for T cell assays and an MOI of 0.5 for monocytic cell assays for 3 hrs. Unbound virus was then removed by washing the cells, followed by seeding the cells into a 96-well plate. The infected cells were cultured in the presence of a serial concentrations of the test compound for 5-7 days. The anti-HIV-1 efficacy was determined by testing for HIV-1 RT activity or p24 level in the cell culture supernatants. All assays were performed in duplicate. Zidovudine and/or lamivudine were used as controls in each experiment.
Activity of the compound A (−) against HIV-1 in various cells. Anti-HIV-1 activity of the compound A (−) were tested in different types of cells, including human peripheral […] cells (PBMCs), T-cell (MT-2 and MT-4) and monocytic cell (U937) lines. The compound A (−) had submicromolar EC50s against HIV-1IIIB in different types of cells tested (Table 2).

[3] = Cellular toxicity by [3H]-thymidine uptake; assay type: cell-based, human; conditions: human, Table 14, PHA-stimulated PBMCs, read-out: CC50 (μM) [^3H]TTP incorporation in: PBMC
Procedure: as §2

[4] = Cellular toxicity by [3H]-thymidine uptake; assay type: cell-based; conditions: human
Procedure: as §3, §2

[5] = Cellular toxicity by WST-1 staining; assay type: cell-based; conditions: human, CBMCs, Table 4, day 7, read-out: CC50 (μM) WST-1 CBMC
Procedure: as §3, §4

SMILES: Nc1nc(N)c2ncn([C@H]3CO[C@@H](CO)O3)c2n1 [DAPD, (−)-β-D -2,6-diaminopurine dioxolane]
- AUC ([1]; oral 20 mg/kg): 1890 ng·h/mL
- Cmax ([1]; oral 20 mg/kg): 1040 ng/mL
- Oral BA (%) ([1]; oral 20 mg/kg): 7.42%
- T1/2 ([1]; oral 20 mg/kg): 46.2 min
- CC50 (PBMCs; read-out: CC50 (μM) [^3H-]TTP incorporation in: PBMC): > 500 µM
- CC50 (HepG-2; read-out: CC50 (μM) [^3H-]TTP incorporation in: HepG2): ≥ 500 µM
- CC50 (DU-145; read-out: CC50 (μM) [^3H-]TTP incorporation in: U-145): > 500 µM
- CC50 (μM) [^3H-]TTP incorporation in: HSF (HSF): 500/350
- CC50 (HT1080; read-out: CC50 (μM) [^3H-]TTP incorporation in: HT1080): > 500 µM
- CC50 (Molt-4; read-out: CC50 (μM) [^3H-]TTP incorporation in: Molt-4): > 500 µM
- AUC ([2]; female rat, iv 10 mg/kg): 357.9 µg·min/mL
- Cmax ([2]; female rat, iv 10 mg/kg): 22100 ng/mL
- T1/2 ([2]; female rat, iv 10 mg/kg): 31.5 min
- AUC ([2]; female rat, po 20 mg/kg): 307.2 µg·min/mL
- Bioavailability (%) ([2]; female rat, po 20 mg/kg): 43%
- Cmax ([2]; female rat, po 20 mg/kg): 2500 ng/mL
- T1/2 ([2]; female rat, po 20 mg/kg): 31.3 min
- Tmax ([2]; female rat, po 20 mg/kg): 45 min
- AUC ([2]; male rat, iv 10 mg/kg): 271.2 µg·min/mL
- Cmax ([2]; male rat, iv 10 mg/kg): 16200 ng/mL
- T1/2 ([2]; male rat, iv 10 mg/kg): 36.2 min
- AUC ([2]; male rat, po 20 mg/kg): 196.5 µg·min/mL
- Bioavailability (%) ([2]; male rat, po 20 mg/kg): 36%
- Cmax ([2]; male rat, po 20 mg/kg): 1960 ng/mL
- T1/2 ([2]; male rat, po 20 mg/kg): 34 min
- Tmax ([2]; male rat, po 20 mg/kg): 35 min
- CC50 (CBMCs): > 100 µM

SMILES: Nc1nc2c(ncn2[C@H]2CO[C@@H](CO)O2)c(=O)[nH]1 [DXG, (−)-β-D -1,3-dioxolane guanine]
- AUC ([1]; iv 5 mg/kg): 5150 ng·h/mL
- Cmax ([1]; iv 5 mg/kg): 29020 ng/mL
- T1/2 ([1]; iv 5 mg/kg): 37.2 min
- AUC ([1]; oral 20 mg/kg): 910 ng·h/mL
- Cmax ([1]; oral 20 mg/kg): 270 ng/mL
- Oral BA (%) ([1]; oral 20 mg/kg): 4.43%
- T1/2 ([1]; oral 20 mg/kg): 147 min
- CC50 (μM) [^3H-]TTP incorporation in: PBMC (PBMCs): >500/250
- CC50 (μM) [^3H-]TTP incorporation in: HepG2 (HepG-2): >500/250
- CC50 (μM) [^3H-]TTP incorporation in: U-145 (DU-145): >500/250
- CC50 (HSF; read-out: CC50 (μM) [^3H-]TTP incorporation in: HSF): ≥ 500 µM
- CC50 (μM) [^3H-]TTP incorporation in: HT1080 (HT1080): >500/250
- CC50 (μM) [^3H-]TTP incorporation in: Molt-4 (Molt-4): >500/250
- EC50 (HIV-1IIIB; HIV-1IIIB): 0.065 ± 0.039 µM
- CC50 (CBMCs): > 100 µM

SMILES: Nc1ccn([C@H]2CC[C@@H](CO)O2)c(=O)n1 [Zalcitabine, zalcitabine]
- CC50 (μM) [^3H-]TTP incorporation in: PBMC (PBMCs): 50/15
- CC50 at 72 h [3]: 35.5 µM
- CC50 at 72 h ([4]; DU-145 cells, Table 4, read-out: CC50 (μM) [^3H-]TTP incorporation in: U-145): 5 µM
- CC50 at 72 h ([4]; DU-145 cells, Table 14, read-out: CC50 (μM) [^3H]TTP incorporation in: U145): 3.5 µM
- CC50 at 72 h ([4]; HSF cells, Table 14, read-out: CC50 (μM) [^3H]TTP incorporation in: HSF): 2 µM
- CC50 at 72 h ([4]; HT1080 cells, Table 4, read-out: CC50 (μM) [^3H-]TTP incorporation in: HT1080): 2 µM
- CC50 at 72 h ([4]; HT1080 cells, Table 14, read-out: CC50 (μM) [^3H]TTP incorporation in: HT800): 2.5 µM
- CC50 at 72 h ([4]; HepG2 cells, Table 4, read-out: CC50 (μM) [^3H-]TTP incorporation in: HepG2): 7 µM
- CC50 at 72 h ([4]; HepG2 cells, Table 14, read-out: CC50 (μM) [^3H]TTP incorporation in: HepG2): 6.5 µM
- CC50 at 72 h ([4]; Molt-4 cells, Table 4, read-out: CC50 (μM) [^3H-]TTP incorporation in: Molt-4): 2 µM
- CC50 at 72 h ([4]; Molt-4 cells, Table 14, read-out: CC50 (μM) [^3H]TTP incorporation in: Molt4): 1 µM
- EC50 (HIV-1IIIB; Human immunodeficiency virus 1, MT2, HIV-1IIIB): 0.05 µM
- CC50 at 7 days [5]: 29 µM
